# Test results published in patent publication US20070293451A1, “Regulation ao ApoB by Hsp110 proteins and related compositions and methods” (University of Pittsburgh, priority 2006, published 2007).
# pKd: −log10 of the molar value. Peptide text beside a SMILES is read from it. * marks the point of attachment. 6FAM = O=C1OC2(c3ccc(O)cc3Oc3cc(O)ccc32)c2cc(C(=O)*)ccc21; Ahx = NCCCCCC(=O)O
# Key:
# full-length Sse1p = target: T1, full-length Sse1p (Saccharomyces cerevisiae, UniProt P32589); assay: Fluorescence anisotropy binding of labeled luciferase-derived peptide to full-length Sse1p
# T1 sequence (P32589 1-693): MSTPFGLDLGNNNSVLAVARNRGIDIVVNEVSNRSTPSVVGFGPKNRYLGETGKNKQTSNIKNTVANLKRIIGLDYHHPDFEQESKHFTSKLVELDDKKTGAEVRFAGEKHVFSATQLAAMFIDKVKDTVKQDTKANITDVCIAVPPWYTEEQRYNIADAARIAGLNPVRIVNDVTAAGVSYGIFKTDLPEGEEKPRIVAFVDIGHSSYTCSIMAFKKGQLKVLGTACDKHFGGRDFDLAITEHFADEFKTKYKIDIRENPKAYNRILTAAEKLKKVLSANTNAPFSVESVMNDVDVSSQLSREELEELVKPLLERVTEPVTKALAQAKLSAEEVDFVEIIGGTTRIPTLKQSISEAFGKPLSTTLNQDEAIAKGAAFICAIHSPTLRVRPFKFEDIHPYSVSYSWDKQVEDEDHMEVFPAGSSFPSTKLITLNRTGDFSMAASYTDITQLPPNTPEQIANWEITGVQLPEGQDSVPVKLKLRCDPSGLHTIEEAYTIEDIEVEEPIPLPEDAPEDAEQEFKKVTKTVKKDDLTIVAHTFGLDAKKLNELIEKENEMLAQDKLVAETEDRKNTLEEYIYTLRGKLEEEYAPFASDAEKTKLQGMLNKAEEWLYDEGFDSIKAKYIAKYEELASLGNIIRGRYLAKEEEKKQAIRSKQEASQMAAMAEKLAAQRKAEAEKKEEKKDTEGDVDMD
# Procedure: (§1) Binding was assessed by fluorescence anisotropy.
# [1] = target: Sse1p peptide binding domain (Saccharomyces cerevisiae, UniProt P32589); details: fluorescence anisotropy
# Procedure: (SEQ ID NO: 1) (which derives from firefly luciferase), assessed by fluorescence anisotropy.
# as §1
# ApoB100 = ApoB100 biogenesis and secretion from McArdle cells (pulse-chase) on Hsp110 over-expression; assay type: cell-based, rat; details: MTP inhibitor BMS-200150 present, without Hsp110 over-expression, data not shown
# Procedure: FIGS. 9A and 9B show the effect of Hsp110 over-expression on ApoB100 secretion from McArdle cells, a standard rat hepatoma cell model of lipoprotein metabolism. ApoB100 (FIG. 9A) and albumin (FIG. 9B) biogenesis and secretion were assessed by published pulse-chase analytical methods.
# An Hsp110 expression vector was obtained from Dr. John Subjeck (Roswell Park Cancer Center, N.Y.), and either that vector or a vector control was introduced into McArdle cells—a rat hepatoma cell line that also expresses full-length ApoB (that is, ApoB100). […] As a control, there was no effect on albumin secretion from these cells, regardless of whether Hsp110 was over-expressed (FIG. 9B). Furthermore, the over-expression of Hsp110 in the McArdle cells in the presence of a microsomal triglyceride transfer protein (MTP) inhibitor (BMS-200150; Jamil, H., D. A. Gordon, D. C. Eustice, C. M. Brooks, J. K. Dickson, Jr., Y. Chen, B. Ricci, C.-H. Chu, T. W. Harrity, C. P. Ciosek, Jr., S. A. Biller, R. E. Gregg, and J. R. Wetterau. 1996. An inhibitor of the microsomal triglyceride transfer protein inhibits apoB secretion from HepG2 cells. Proc Natl Acad Sci USA. 93, 11991-95) increased the percent of apoB recovered in the lysate and medium fractions from 14% to 28% (data not shown).
molecule,measurement,setting,value
CC[C@H](C)[C@H](NC(=O)[C@H](CC(C)C)NC(=O)CCCCCNC(=O)c1ccc2c(c1)C1(OC2=O)c2ccc(O)cc2Oc2cc(O)ccc21)C(=O)N[C@@H](CS)C(=O)NCC(=O)N[C@@H](Cc1ccccc1)C(=O)N[C@@H](CCCNC(=N)N)C(=O)N[C@H](C(=O)N[C@H](C(=O)N[C@@H](CC(C)C)C(=O)N[C@@H](CCSC)C(=O)N[C@@H](Cc1ccc(O)cc1)C(=O)N[C@@H](CCCNC(=N)N)C(=O)N[C@@H](Cc1ccccc1)C(=O)O)C(C)C)C(C)C [6-carboxyfluorescein-aminohexanoic acid-linked-LICGFRVVLMYRF] ({6FAM-Ahx}-LICGFRVVLMYRF-OH),pKd,full-length Sse1p,8.52 to 8.70
same,lower affinity for Sse1p peptide binding domain alone compared with Sse1p,[1],~100 fold
"O=C1c2ccccc2CN1C1CCN(CCC(c2ccccc2)c2ccccc2)CC1 [BMS-200150, reference compound]",percent of apoB recovered in the lysate and medium fractions,ApoB100,14%
"LICGFRVVLMYRF [Unlabeled peptide, unlabeled form of the firefly luciferase-derived peptide]",competition with labeled peptide for binding,full-length Sse1p; data not shown,competes for binding
